Assay results taken from the METLIN SMRT retention time set (Domingo-Almenara et al. 2019).

Assay: gradient 5% acetonitrile 3 min, to 50% in 2 min, to 85% in 15 min, held 3 min, 100 µL/min
Settings: column: Zorbax Extend-C18 2.1 x 50 mm; eluents: water / acetonitrile, 0.1% formic acid
Outline: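 Using water and acetonitrile that each contained 0.1% formic acid, mixtures of ~100 pure standards were separated at 100 μL/min on a Zorbax Extend-C18 column (2.1 × 50 mm, 1.8 μm). The HPLC fed a quadrupole time-of-flight mass spectrometer working in positive and negative ionization mode, with dead and dwell volumes of 40 μL and 900 μL. Data were acquired over 3 months. Retention time was read from computationally picked adduct peaks after manual inspection of each.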

| Compound | RP-LC retention time |
| --- | --- |
| COC1CCC12CCN(C(=O)C1CC1)CC2 (stereo not given) | 710 s |
| C=CCn1c(=O)c2ccccc2n(Cc2nc(-c3ccc(OC(F)(F)F)cc3)no2)c1=O | 1140 s |
| Cc1nc(-c2csc(S(=O)(=O)NC3CCCCCC3)c2)sc1C | 1150 s |
| Cc1ccc(C)c(NC(=O)N2CCCC2c2nc(-c3ccc(F)cc3F)no2)c1 (stereo not given) | 1010 s |
| CC(=O)Nc1ccc(C2(C(=O)NCc3cccc(F)c3)CCC2)cc1 | 751 s |
| Cc1nc(NC2CCCCC2)sc1C(=O)Nc1ccc(F)cc1F | 855 s |
| Cc1cc(C)cc(Nc2nc(C)cc(=O)n2CC(=O)Nc2cccc(C#N)c2)c1 | 811 s |
| COc1ccc(OC)c(NS(=O)(=O)c2c(C)sc(C)c2-c2cc(C(F)(F)F)on2)c1 | 1150 s |
| CCNc1cc(N2CCCC(CCC(=O)NCCN3CCN(C)CC3)C2)ncn1 (stereo not given) | 541 s |
| CNC(=O)C1CCCN(c2nc3ncn(CC(=O)NC4CCCCC4)c(=O)c3s2)C1 (stereo not given) | 632 s |
| O=C(Cc1ccc(F)cc1)NCCCn1cccc1 | 746 s |
| CCN(CC)S(=O)(=O)c1ccc2c(c1)N(CC(=O)N(C)Cc1ccccc1)C(=O)C1CCCCN21 (stereo not given) | 895 s |
| Cc1ccc(N2CCN(S(=O)(=O)c3cc(-c4nnc(C5CCC5)o4)co3)CC2)cc1 | 1110 s |
| O=C(NC1CC1)C1(c2ccc(F)cc2)CC1 | 779 s |
| O=C(CCNNC(=O)c1ccncc1)NCc1ccccc1 | 636 s |
| CCOc1ccc(S(=O)(=O)N2CCCC(C(=O)Nc3ccc(OC)cc3OC)C2)cc1C (stereo not given) | 1070 s |
| COc1ccccc1OCCCn1c(C2CCCO2)nc2ccccc21 (stereo not given) | 602 s |
| Cc1nn(C(C)C(=O)Nc2cc(F)ccc2F)c(=O)c2c(-n3cccc3)n(-c3ccccc3)nc12 (stereo not given) | 1130 s |
| Cc1ccc(-c2c(N3CCN(c4ccccn4)CC3)c(=O)c2=O)cc1C | 708 s |
| CN(C)c1ccc(CNC(=O)C2CCN(Cc3cn(C)c4ccc(Cl)cc34)CC2)cc1 | 584 s |
| COc1ccc(Cl)cc1N1CC(c2nc(-c3cc(OC)c(OC)c(OC)c3)no2)CC1=O (stereo not given) | 905 s |
| O=C(NCC1(c2ccccc2)CCOCC1)C(=O)Nc1cc2c3c(c1)CCC(=O)N3CCC2 | 762 s |
| COc1ccc(CCNS(=O)(=O)c2cccc(-c3nc(-c4ccccc4)no3)c2)cc1OC | 1070 s |

| Compound | RP-LC retention time |
| --- | --- |
| Cc1ccc2nc(-c3cccc(Br)c3)c(Nc3ccccc3C)n2c1 | 849 s |
| CN1C(=O)c2cccnc2Sc2cc(NC(=O)C3CC3)ccc21 | 650 s |
| Fc1ccccc1-c1noc(Cc2nnc(-c3ccc(Cl)cc3)o2)n1 | 1100 s |
| Cn1nc2n(c1=O)CCN(S(=O)(=O)c1ccccc1C(F)(F)F)CC2 | 675 s |
| CSc1ccc(-c2nc3cnccn3c2Nc2ccc(C(=O)NCc3ccco3)cc2)cc1 | 778 s |
| O=C(Cn1c(=O)c2cc(-c3cccs3)nn2c2ncccc21)NCc1ccc(F)cc1 | 821 s |
| CN(CCc1noc(-c2ccccc2)n1)C(=O)Nc1ccccc1Br | 956 s |
| Cn1cc(S(=O)(=O)N2CCC(C(=O)N3CCCCCC3)CC2)cc1C(=O)N1CCCC1 | 732 s |
| CN1C(=O)Cc2ccccc2C1C(=O)NCc1cc(F)ccc1F (stereo not given) | 716 s |
| CSc1cccc(NC(=O)Cn2nc3n(c2=O)CCCCC3)c1 | 707 s |
| Fc1ccc(C2Cn3nnc(-c4nc(-c5ccccc5Cl)no4)c3CO2)cc1 (stereo not given) | 1170 s |
| COc1ccc(OC)c(CNC(=O)CCc2c(-c3ccc(Br)cc3)nc3ccccn23)c1 | 693 s |
| CCC(=O)N1CCCC1c1nc2ccccc2n1CC(=O)N(c1ccccc1)C(C)C (stereo not given) | 709 s |
| Cc1cc(C)cc(Oc2nccn3c(=O)n(CC(=O)Nc4ccccc4)nc23)c1 | 922 s |
| CC1=C(c2ccccc2)S(=O)(=O)N=C1N1CCCN(C(=O)Cc2ccsc2)CC1 | 721 s |
| CCn1cnc2ccc(-c3noc(-c4ccc(F)cc4)n3)cc21 | 780 s |
| Cc1nc(C)c(C(=O)Nc2cccc(Cl)c2C)o1 | 731 s |
| O=C(NCC(c1ccc2c(c1)OCO2)N1CCN(c2ccc(F)cc2)CC1)C1CC1 (stereo not given) | 682 s |
| CC(C)Cc1ccc(S(=O)(=O)N2CCc3c(c(-c4nnc(-c5ccc(F)cc5)o4)nn3C)C2)cc1 | 1180 s |
| CC(C)c1ccc(NC(=O)C2CCN(c3cncnc3N3CCOCC3)CC2)cc1 | 714 s |
| Cc1ccc(-c2ccc(N3CCCC(C(=O)NCCC4=CCCCC4)C3)nn2)cc1C (stereo not given) | 888 s |
| CCOc1cc(C2C(C(=O)OC(C)C)=C(C)N=C3SCCC(=O)N32)ccc1OC(C)=O (stereo not given) | 908 s |
